Test results as given in US20240325274A1, “SUPRAMOLECULAR AMINO ACID OR SALT THEREOF, AND PREPARATION METHOD THEREFOR AND APPLICATION THEREOF” (SUZHOU OULIT BIOPHARM CO., LTD., priority 2021, published 2024).

Assays:
[1] = pH, appearance and smell of neutralized aqueous solutions; type: physicochemical; conditions: 4% in water with 0.54% sodium hydroxide (Table 6)
Protocol: (§1) Three sets of color cosmetics (lipstick+eyeliner) were applied to the arms of 5 subjects with similar areas and thicknesses. The cosmetics were washed with the aqueous solutions in Table 6 (1 g of each) and then rinsed with tap water (the detergency was graded by the 5 subjects comprehensively).
The preparation procedures are as follows: Two 500-g beakers were weighed on an electronic balance, and the weights of the beakers were recorded; a proper amount of deionized water was weighed and added to the beakers according to the formula, and the beakers were heated to 75-80° C. in a water bath. The temperature of the water in the beaker was measured by a thermometer. […] At the start of the stirring, a proper amount of arginine was added to beaker (1) and a proper amount of 10% aqueous sodium hydroxide solution was added to beaker (2). The mixtures were stirred for 1 min. The temperature of the beakers (1) and (2) was reduced to 25° C. by running tap water. The evaporated water in the two beakers in the preparation process was compensated by cooled deionized water to 100% on an electronic balance. The pH of the products in the beaker (1) and (2) was measured, the appearance was observed, and the smell was confirmed.

[2] = Detergency evaluation: color cosmetics on arms of 5 subjects; set-up: key: 5 denotes the best; 3 denotes moderate; 1 denotes the worst; conditions: 1 g of 4% aqueous solution with 0.54% sodium hydroxide; graded by 5 subjects
From the text: as §1

[3] = test system: C. albicans (ATCC 10231); conditions: 10 g in 100 mL neutralized with NaOH to pH 6-7
Protocol: (§2) A 10% aqueous sodium hydroxide solution was added to neutralize the mixture to pH 6-7. The volume of the aqueous solution was brought to 100 mL. Fruits pre-inoculated with common microorganisms such as Staphylococcus aureus, Escherichia coli, Pseudomonas aeruginosa, Candida albicans, and the like were soaked in 5 mL of the stock solution (the solution neutralized by sodium hydroxide) for a certain period of time, and washed with clean water. The microorganism residues on the fruits were determined.

[4] = test system: E. coli (8099)
Protocol: as §2

[5] = test system: S. aureus (ATCC 6538); conditions: 10 g in 100 mL neutralized with NaOH to pH 6-7
Protocol: as §2

[6] = cloths soaked in 5 mL stock solution for 2 min, washed with water, aired
Protocol: A 10% aqueous sodium hydroxide solution was added to neutralize the mixture to pH 6-7. The volume of the aqueous solution was brought to 100 mL. Cotton cloths of 10 square centimeters with peculiar smell (smell, engine oil smell, odor, etc.) were soaked in 5 mL of stock solution for 2 min, taken out, washed with water, and dried by airing.

[7] = Protocol: Two 100-g aliquots of bok choy pre-sprayed with pesticides methamidophos and acephate were taken. One was directly soaked in 1 L of clean water and detected for the pesticide residues, denoted as “before washing”. […] The procedures are as follows:
A 10% aqueous sodium hydroxide solution was added to neutralize the mixture to pH 6-7. The volume of the aqueous solution was brought to 100 mL. The second 100-g aliquot of bok choy pre-sprayed with pesticides methamidophos and acephate was shredded, soaked in 5 mL of the stock solution for 2 min, washed with 500 mL of clean water, and detected for the pesticide residues.

[8] = Qualitative household application test; conditions: 12% aqueous solution of sodium salt
From the text: For the surface of the electric rice cookers, especially the sticky bottoms, the greasy stains on the surface were wiped several times by using rags or paper towels soaked in the solutions and then wiped by using a clean cloth.

| Compound | Appearance [1] | pH value [1] | Detergency [2] | Inhibition of C. albicans (ATCC 10231), % (after 5 minutes) [3] [%] | Inhibition of E. coli (8099), % (after 2 minutes) ([4]; after 2 minutes, 10 g in 100 mL neutralized with NaOH to pH 6-7, fruits soaked in 5 mL stock solution) [%] | Inhibition of E. coli (8099), % (after 5 minutes) ([4]; after 5 minutes, 10 g in 100 mL neutralized with NaOH to pH 6-7) [%] | Inhibition of S. aureus (ATCC 6538), % (after 2 minutes) ([5]; after 2 minutes) [%] | Inhibition of S. aureus (ATCC 6538), % (after 5 minutes) ([5]; after 5 minutes) [%] | Deodorization effect on cotton cloths [6] | Acephate, Percentage removal, % ([7]; 2 min of treatment) [%] | Methamidophos, Percentage removal, % ([7]; 2 min of treatment) [%] | Methamidophos residue, After cleaning ([7]; bok choy soaked in 5 mL stock solution for 2 min, washed with 500 mL clean water, before washing 16.42 mg/kg) [mg/kg] | Acephate residue, After cleaning ([7]; bok choy soaked in 5 mL stock solution for 2 min, washed with 500 mL clean water, before washing 37.57 mg/kg) [mg/kg] | Detergency on surfaces of cooking benches and kitchen hoods [8] |
| --- | --- | --- | --- | --- | --- | --- | --- | --- | --- | --- | --- | --- | --- | --- |
| CCCCCCCCCCCC(=O)N[C@@H](C)C(=O)O [Comparative Example 1, N-lauroyl-L-alanine] | Transparent | 8.07 | 3 | – | – | – | – | – | – | – | – | – | – | – |
| CCCCCCCCCCCC(=O)N[C@@H](C)C(=O)O [Comparative Example 2, N-lauroyl-L-alanine] | Transparent | 6.56 | 1 | – | – | – | – | – | – | – | – | – | – | – |
| N-lauroyl-L-alanine supramolecule [Example 1] | – | – | 5 | 100 | 98.5 | 100 | 100 | 100 | the smells on the cotton cloths were completely eliminated | 86.37 | 76.19 | 3.91 | 5.12 | excellent detergency |
